The source of these data is US10689354B2, “Aminoazole derivative” (Teijin Pharma Limited, priority 2015, dated 2020).

One experiment addresses T1, human androgen receptor (Homo sapiens, UniProt P10275).
T1 construct: expressed in transfected cells; host or cells: HEK293
T1 sequence (P10275 1-920): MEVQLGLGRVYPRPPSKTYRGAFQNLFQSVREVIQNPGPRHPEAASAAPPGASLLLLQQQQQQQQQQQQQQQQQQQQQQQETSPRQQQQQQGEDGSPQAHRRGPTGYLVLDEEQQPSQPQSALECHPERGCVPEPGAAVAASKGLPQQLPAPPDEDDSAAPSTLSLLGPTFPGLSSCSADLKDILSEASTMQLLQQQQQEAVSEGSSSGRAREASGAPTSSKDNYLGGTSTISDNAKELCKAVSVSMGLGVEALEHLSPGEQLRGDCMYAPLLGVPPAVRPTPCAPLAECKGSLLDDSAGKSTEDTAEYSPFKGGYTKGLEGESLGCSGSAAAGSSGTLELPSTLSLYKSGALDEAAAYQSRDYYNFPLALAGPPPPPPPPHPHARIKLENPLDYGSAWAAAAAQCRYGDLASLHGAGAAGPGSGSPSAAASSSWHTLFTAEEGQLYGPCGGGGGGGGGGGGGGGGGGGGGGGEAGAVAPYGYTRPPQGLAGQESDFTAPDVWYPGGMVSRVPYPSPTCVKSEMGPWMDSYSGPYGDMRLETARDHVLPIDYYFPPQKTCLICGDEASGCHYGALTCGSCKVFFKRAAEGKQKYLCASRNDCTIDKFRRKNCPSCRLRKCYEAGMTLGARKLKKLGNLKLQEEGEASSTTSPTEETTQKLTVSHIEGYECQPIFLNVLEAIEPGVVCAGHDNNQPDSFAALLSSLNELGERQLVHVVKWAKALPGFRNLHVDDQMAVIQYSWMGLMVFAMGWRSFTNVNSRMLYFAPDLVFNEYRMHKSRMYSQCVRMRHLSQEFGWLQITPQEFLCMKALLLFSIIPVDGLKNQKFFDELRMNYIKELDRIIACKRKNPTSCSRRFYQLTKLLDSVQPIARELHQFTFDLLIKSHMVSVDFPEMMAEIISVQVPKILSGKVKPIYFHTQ
Briefly: Reporter assay of an androgen receptor responsive sequence (luciferase, transiently transfected HEK293 cells). It counts as cell-based. The following applies: 24 hours incubation, relative to activity of 100 nM DHT, read-out: AR transcriptive activity (pEC50) (converted). The method, boiled down: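 Agonism scored as pEC50, fitted by 4-parameter curve against the response to 100 nM DHT, from dual-luciferase readout after 24 h compound treatment. Cells were HEK293 co-transfected (3 h) with human AR expression vector, androgen-responsive firefly reporter and Renilla control, in charcoal-stripped serum.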
(In general: Reporter assays use an easily measured gene product as a stand-in for the process of interest.)

The target in experiment [1] is T2, androgen receptor (AR-LBD) (Rattus norvegicus, UniProt P15207).
T2 construct: 5 μL of 2×AR-LBD/Fluoromone AL Red Complex contained in the kit; purchased Invitrogen
T2 sequence (P15207 651-882 limits assumed): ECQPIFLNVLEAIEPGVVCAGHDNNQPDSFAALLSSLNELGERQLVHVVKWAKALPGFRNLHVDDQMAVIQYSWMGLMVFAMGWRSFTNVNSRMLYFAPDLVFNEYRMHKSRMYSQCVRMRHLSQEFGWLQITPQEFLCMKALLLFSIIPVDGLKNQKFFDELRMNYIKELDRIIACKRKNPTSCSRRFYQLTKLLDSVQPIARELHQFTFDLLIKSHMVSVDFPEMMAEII
Put plainly: Evaluation of androgen receptor affinity (PolarScreen Androgen Receptor Competitor Assay Kit, Red; fluorescence polarization). To be noted: 22° C. for 5 hours, relative to binding rate of 1 μM DHT, read-out: AR affinity (pEC50) (converted). The method, boiled down:
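Duplicate wells of test compound were mixed with the kit's rat AR-LBD–Fluoromone AL Red tracer complex and left 5 hours at 22 °C before polarization was read. A 4-parameter fit gave pEC50, with binding rate referenced to 1 μM dihydrotestosterone.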

In the case of `COCCCS(=O)(=O)NC(=O)c1nc(N(Cc2cnc(C(F)(F)F)c(F)c2)c2ccc(C#N)cc2)sc1C` [Compound 533, 2-[4-cyano-N-[[5-fluoro-6-(trifluoromethyl)-3-pyridyl]methyl]anilino]-N-(3-methoxypropylsulfonyl)-5-methyl-thiazole-4-carboxamide], the EC50 is 794 nM on human androgen receptor and 158 nM in experiment [1].

On to `Cc1sc(N(CCc2ccc(C#N)cc2)Cc2ccc(Cl)cc2)nc1C(=O)NS(C)(=O)=O` [Example 306, 2-[(4-chlorophenyl)methyl-[2-(4-cyanophenyl)ethyl]amino]-5-methyl-N-methylsulfonyl-thiazole-4-carboxamide], for which the EC50 at human androgen receptor is 100 nM; in experiment [1], 31.6 nM.

Take `COCCCS(=O)(=O)NC(=O)c1nc(N(Cc2cc(F)cc(OC(F)F)c2)c2ccc(C#N)cc2)sc1C` [Compound 519, 2-[4-cyano-N-[[3-(difluoromethoxy)-5-fluoro-phenyl]methyl]anilino]-N-(3-methoxypropylsulfonyl)-5-methyl-thiazole-4-carboxamide]: the values for the EC50 (at human androgen receptor; in experiment [1]) were 158 nM and 25.1 nM, respectively.

Regarding `Cc1sc(N(Cc2ncc(Cl)cc2F)c2ccc(C#N)cc2)nc1C(=O)NS(C)(=O)=O` [Example 168, 2-[N-[(5-chloro-3-fluoro-2-pyridyl)methyl]-4-cyano-anilino]-5-methyl-N-methylsulfonyl-thiazole-4-carboxamide], the figures for the EC50 (on human androgen receptor; in experiment [1]) were 200 nM and 100 nM, respectively.

Turning to `COCCCS(=O)(=O)NC(=O)c1nc(N(Cc2cnc(C(F)(F)F)c(Cl)c2)c2ccc(C#N)cc2)sc1C` [Compound 531, 2-[N-[[5-chloro-6-(trifluoromethyl)-3-pyridyl]methyl]-4-cyano-anilino]-N-(3-methoxypropylsulfonyl)-5-methyl-thiazole-4-carboxamide], the EC50 is 1000 nM at human androgen receptor and 100 nM in experiment [1].

`Cc1sc(N(Cc2ccc3ncsc3c2)c2ccc(C#N)cc2)nc1C(=O)NS(C)(=O)=O` [Compound 50, 2-[N-(1,3-benzothiazol-6-ylmethyl)-4-cyano-anilino]-5-methyl-N-methylsulfonyl-thiazole-4-carboxamide]: the EC50 at human androgen receptor was 50.1 nM; in experiment [1], 79.4 nM.

Consider `Cc1sc(N(CCc2ccc(C#N)cc2)Cc2ccc(Cl)cc2)nc1C(=O)NS(=O)(=O)Cc1ccncc1` [Compound 741, 2-[(4-chlorophenyl)methyl-[2-(4-cyanophenyl)ethyl]amino]-5-methyl-N-(4-pyridylmethylsulfonyl)thiazole-4-carboxamide], for which the results for the EC50 (on human androgen receptor; in experiment [1]) were 158 nM and 25.1 nM, respectively.

For `COCCCS(=O)(=O)NC(=O)c1nc(N(Cc2ccc(OC(F)F)c(Cl)c2)c2ccc(C#N)cc2)sc1C` [Example 189, 2-[N-[[3-chloro-4-(difluoromethoxy)phenyl]methyl]-4-cyano-anilino]-N-(3-methoxypropylsulfonyl)-5-methyl-thiazole-4-carboxamide], the EC50 was 158 nM at human androgen receptor and 31.6 nM in experiment [1].

With `CS(=O)(=O)NC(=O)c1nc(N(Cc2ccc(C(F)(F)F)cn2)c2ccc(C#N)cc2)oc1C1CC1` [Compound 649, 2-[4-cyano-N-[[5-(trifluoromethyl)-2-pyridyl]methyl]anilino]-5-cyclopropyl-N-methylsulfonyl-oxazole-4-carboxamide], the figures for the EC50 (at human androgen receptor; in experiment [1]) were more than 10000 nM and 631 nM, respectively.

On to `COCCCS(=O)(=O)NC(=O)c1nc(N(CCc2ccc(OC(F)(F)F)cc2)Cc2ccc(C(F)(F)F)nc2)oc1C` [Compound 565, N-(3-methoxypropylsulfonyl)-5-methyl-2-[2-[4-(trifluoromethoxy)phenyl]ethyl-[[6-(trifluoromethyl)-3-pyridyl]methyl]amino]oxazole-4-carboxamide], for which the EC50 on human androgen receptor was 2000 nM; in experiment [1] it was 63.1 nM.

As for `Cc1sc(N(Cc2ccc(Cl)c(F)c2)c2ccc(C#N)cc2)nc1C(=O)NS(C)(=O)=O` [Compound 116, 2-[N-[(4-chloro-3-fluoro-phenyl)methyl]-4-cyano-anilino]-5-methyl-N-methylsulfonyl-thiazole-4-carboxamide], the EC50 was 25.1 nM at human androgen receptor and 31.6 nM in experiment [1].

Turning to `CS(=O)(=O)NC(=O)c1nc(N(Cc2ccc(OC(F)F)cc2)c2ccc(C#N)cc2)sc1C1CC1` [Compound 662, 2-[4-cyano-N-[[4-(difluoromethoxy)phenyl]methyl]anilino]-5-cyclopropyl-N-methylsulfonyl-thiazole-4-carboxamide], the EC50 is 5010 nM on human androgen receptor and 20 nM in experiment [1].

As for `Cc1sc(N(CCC2CCCCC2)Cc2ccccc2)nc1C(=O)NS(C)(=O)=O` [Example 298, 2-[benzyl(2-cyclohexylethyl)amino]-5-methyl-N-methylsulfonyl-thiazole-4-carboxamide], the EC50 on human androgen receptor was more than 10000 nM; in experiment [1], 100 nM.

Turning to `Cc1sc(N(Cc2ccc(F)cc2OC(F)F)c2ccc(C#N)cc2)nc1C(=O)NS(C)(=O)=O` [Example 176, 2-[4-cyano-N-[[2-(difluoromethoxy)-4-fluoro-phenyl]methyl]anilino]-5-methyl-N-methylsulfonyl-thiazole-4-carboxamide], the EC50 was 501 nM at human androgen receptor and 63.1 nM in experiment [1].

`Cc1sc(N(Cc2ccc3c(c2)C(O)CCO3)c2ccc(C#N)cc2)nc1C(=O)NS(C)(=O)=O` (centres unmarked) [Compound 486, 2-[4-cyano-N-[(4-hydroxychroman-6-yl)methyl]anilino]-5-methyl-N-methylsulfonyl-thiazole-4-carboxamide]: the EC50 (on human androgen receptor; in experiment [1]) was 251 nM each time.

Turning to `Cc1sc(N(Cc2ccc(OCc3ccccn3)cc2)c2ccc(C#N)cc2)nc1C(=O)NS(C)(=O)=O` [Compound 568, 2-[4-cyano-N-[[4-(2-pyridylmethoxy)phenyl]methyl]anilino]-5-methyl-N-methylsulfonyl-thiazole-4-carboxamide], the EC50 on human androgen receptor is 794 nM; in experiment [1], 158 nM.

Turning to `Cc1sc(N(CCc2ccc3ccccc3c2)c2ccc(C#N)cc2)nc1C(=O)NS(C)(=O)=O` [Compound 88, 2-[4-cyano-N-[2-(2-naphthyl)ethyl]anilino]-5-methyl-N-methylsulfonyl-thiazole-4-carboxamide], the EC50 on human androgen receptor is more than 10000 nM; in experiment [1], 316 nM.

Turning to `Cc1sc(N(Cc2ccc(Cl)c(Cl)c2)c2ccc(C#N)cc2)nc1C(=O)NS(C)(=O)=O` [Compound 100, 2-[4-cyano-N-[(3,4-dichlorophenyl)methyl]anilino]-5-methyl-N-methylsulfonyl-thiazole-4-carboxamide], the EC50 on human androgen receptor was 15.8 nM; in experiment [1], 31.6 nM.

For the compound `Cc1cccc(CN(c2ccc(C#N)cc2)c2nc(C(=O)NS(C)(=O)=O)c(C)s2)c1` [Compound 16, 2-[4-cyano-N-(m-tolylmethyl)anilino]-5-methyl-N-methylsulfonyl-thiazole-4-carboxamide], the EC50 is 31.6 nM on human androgen receptor and 25.1 nM in experiment [1].

Regarding `Cc1sc(N(Cc2ccc(F)cc2)c2ccc(C#N)cc2)nc1C(=O)NS(C)(=O)=O` [Compound 15, 2-[4-cyano-N-[(4-fluorophenyl)methyl]anilino]-5-methyl-N-methylsulfonyl-thiazole-4-carboxamide], the results for the EC50 (on human androgen receptor; in experiment [1]) were 39.8 nM and 63.1 nM, respectively.

Regarding `Cc1oc(N(Cc2cccc(C#N)c2)c2ccc(C#N)cc2)nc1C(=O)NS(C)(=O)=O` [Compound 617, 2-[4-cyano-N-[(3-cyanophenyl)methyl]anilino]-5-methyl-N-methylsulfonyl-oxazole-4-carboxamide], the EC50 was more than 10000 nM at human androgen receptor and 251 nM in experiment [1].

Regarding `Cc1nc(CN(c2ccc(C#N)cc2)c2nc(C(=O)NS(C)(=O)=O)c(C)s2)cs1` [Compound 40, 2-[4-cyano-N-[(2-methylthiazol-4-yl)methyl]anilino]-5-methyl-N-methylsulfonyl-thiazole-4-carboxamide], the EC50 is 501 nM on human androgen receptor and 1000 nM in experiment [1].
